In patent US20240299446A1 (priority 2023, published 2024):
Entries after “also recorded” stand apart in the source; their conditions may differ. Marks after values point to notes of the source that are not given here.

What was measured:
ovariectomy (OVX) rats [1] = assay: Change in weight of organs in ovariectomized rats; format: in vivo, Sprague-Dawley rats
Procedure: 12 week old female SPF Sprague-Dawley rats (body weight: 250 g; n=15) were purchased from the Korean Laboratory Animals Center (Eumseong, South Korea). Breeding conditions were as follows: temperature, 23+3° C.; relative humidity, 55+10%; lighting time, 12 hours (08:00-20:00); ventilation frequency, 10-20 changes/h; illumination, 150-300 lux. The temperature and humidity were measured using a hygrometer in units of time, and there were no variables that could affect the experimental results. The animals were fed normal rodent feed and purified water.
The experimental animals were randomly divided into three groups. After adaptation, bilateral laparotomy (sham) or bilateral ovariectomy (OVX) was performed on the rats.
Changes in the body weight and feeding and water intake were measured at a regular interval.

ovariectomy (OVX) rats [2] = assay: Hematological analysis in ovariectomized rats; format: in vivo, Sprague-Dawley rats
Procedure: Blood samples were collected at 12 weeks post-surgery.
Hematological experiments were performed using T-540 Coulter Counter (Coulter Electronics Inc., Hialeah, USA) and ADVIA 120 Hematology System (Bayer Healthcare LLC, Tarrytown, USA). White blood cells (WBCs), differential leukocyte counts, hematocrit, red blood cells (RBCs), mean corpuscular volume (MCV), mean corpuscular hemoglobin (MCH), mean corpuscular hemoglobin concentration (MCHC), and platelet count were subjected to analysis, respectively.

ovariectomy (OVX) rats [3] = assay: Blood markers  (17β-estradiol, osteocalcin, CTx) in ovariectomized rats; format: in vivo, Sprague-Dawley rats; settings: for C-terminal telopeptide: serum CTx
Procedure: Osteocalcin levels were measured using a sandwich ELISA kit (Biomedical Technologies Inc., Stoughton, USA), while CTx levels were measured using a serum RatLaps ELISA kit (IDS Inc., Fountain Hills, USA).

ovariectomy (OVX) rats [4] = assay: Femur bone mineral density (DEXA), breaking force and mineral content in ovariectomized rats; format: in vivo, Sprague-Dawley rats; settings: for BMD: femur
Procedure: Using dual energy X-ray absorptionmetry (DEXA; Prodigy Advance, Donga imaging, Korea), the bone mineral density (BMD) of the femur was measured. Immediately after BMD measurement, the femur was subjected to mechanical test at room temperature using a material testing machine (MZ500D; Maruto, Tokyo, Japan). For stabilization, the mid-diaphysis of the thigh was placed on two supports at an interval of 4 mm on a test device. A three-point bending test was performed in front and rear directions at the midpoint between the two supports. Breaking force was measured using software (CTR win, Ver. 1.05) to measure bone strength. […] Then, the thigh was placed at 800° C. for 16 hours, and the weight of the ash was measured. […] Calcium and phosphorus contents were measured using an atomic absorption spectrophotometer (PerkinElmer; A Analyst 100 Spectrophotometer, Boston, USA).

[5] = test system: human colo 205 rectal cancer cells; assay: Rectal cancer animal experiment, Colo205 xenograft model; format: in vivo; settings: for MTV (n) Day 28: median tumor volume; for Deaths NTR: non-treatment-related deaths; for % TGI: percent tumor growth inhibition compared to Group 1 (vehicle), Day 28, 0.83 mg/kg po; for Deaths TR: treatment-related deaths
Procedure: Using human colo 205 rectal cancer cells as xenograft model, clinical experiments were performed with adenocarcinoma nude mice for 28 days. In this regard, the experimental method and usage are shown in Table 8 (Protocol Design for the Colo205-e347 Study) and Table 9 (Final treatment regimen at completion of the study) below.

ovariectomy (OVX) rats [6] = assay: Blood markers  (17β-estradiol, osteocalcin, CTx) in ovariectomized rats; format: in vivo, Sprague-Dawley rats; settings: for blood 17β-estradiol reduction by ovariectomy: OVX rats; for Estradiol: serum 17β-estradiol, 12 weeks after ovariectomy, mean ± SD, 5 rats
ovariectomy (OVX) rats [7] = assay: Blood biochemical analysis in ovariectomized rats; settings: for bone growth marker ALP: OVX rats, serum
Procedure: Blood samples were collected at 12 weeks post-surgery. Animals were deprived of food for 16 hours and then anesthetized prior to blood sampling (Zoletile 50, Virbac, Korea). 0.5 mL of blood was collected from the abdominal artery and stored at 4° C. in a refrigerator.
A portion of the blood was used for hematological experiments, and the remaining blood was centrifuged at 3,000 rpm for 10 minutes to obtain serum. The serum was used for blood biochemical experiments and bone metabolism markers 17β-estradiol, osteocalcin and CTx analysis.
The parameters measured for blood biochemical analysis (Ciba-Corning 644 Na/K/Cl Analyzer, Ciba-Corning, Medfield, USA) were as follows: alanine aminotransferase (ALT), aspartate aminotransferase (AST), alkaline phosphatase (ALP), blood urea nitrogen (BUN), glucose, triglycerides (TG), total cholesterol (TC), high-density lipoproteins (HDL), low-density lipoproteins (LDL), total proteins (TP), albumin, calcium and phosphorus.

multiple myeloma (MM) = assay: Multiple myeloma animal experiment; format: in vivo, 5TGM1-grafted NSG mice
[8] = OVX rats, treatment for 12 weeks after ovariectomy, mean ± SD, 5 rats
[9] = blood at 12 weeks post-surgery, mean ± SD, 5 rats
[10] = OVX rats, increased after ovariectomy
[11] = 12 weeks after ovariectomy, mean ± SD, 5 rats
[12] = serum, 12 weeks after ovariectomy, mean ± SD, 5 rats
[13] = femur ash, reduced by ovariectomy
[14] = DEXA, treatment for 12 weeks after ovariectomy, mean ± SD, 5 rats
[15] = serum at 12 weeks post-surgery, mean ± SD, 5 rats

Sigma Anti-bonding Molecule Calcium Carbonate [SAC, reference compound]
Adrenal gland Left weight (ovariectomy (OVX) rats [1]; [8]): 0.0094 ± 0.0014 g
Adrenal gland Right weight (ovariectomy (OVX) rats [1]; [8]): 0.0094 ± 0.0014 g
Body weight (ovariectomy (OVX) rats [1]; [8]): 371.36 ± 9.97 g
Brain weight (ovariectomy (OVX) rats [1]; [8]): 0.5526 ± 0.02
Femur Left weight (ovariectomy (OVX) rats [1]; [8]): 0.2935 ± 0.02 g
Femur Right weight (ovariectomy (OVX) rats [1]; [8]): 0.2902 ± 0.02 g
Kidney: Left weight (ovariectomy (OVX) rats [1]; [8]): 0.2687 ± 0.01 g
Kidney: Right weight (ovariectomy (OVX) rats [1]; [8]): 0.2626 ± 0.02 g
Liver weight (ovariectomy (OVX) rats [1]; [8]): 2.1820 ± 0.15 g
Pituitary weight (ovariectomy (OVX) rats [1]; [8]): 4.2 ± 1 mg
Spleen weight (ovariectomy (OVX) rats [1]; [8]): 0.1856 ± 0.02 g
Uterus weight (ovariectomy (OVX) rats [1]; [8]): 0.0444 ± 0.02 g
Vagina weight (ovariectomy (OVX) rats [1]; [8]): 0.0575 ± 0.02 g
Basophils (ovariectomy (OVX) rats [2]; [9]): 0.02 ± 0.04 9%
Eosinophils (ovariectomy (OVX) rats [2]; [9]): 5.04 ± 3.88%
Hematocrit (ovariectomy (OVX) rats [2]; [9]): 43.94 ± 2.18%
Lymphocytes (ovariectomy (OVX) rats [2]; [9]): 70.36 ± 8.78%
Mean corpuscular hemoglobin (ovariectomy (OVX) rats [2]; [9]): 30.50 ± 0.75 pg
Mean corpuscular hemoglobin concentration (ovariectomy (OVX) rats [2]; [9]): 57.14 ± 0.76 g/dL
Mean corpuscular volume (ovariectomy (OVX) rats [2]; [9]): 53.44 ± 1.24 fL
Monocytes (ovariectomy (OVX) rats [2]; [9]): 2.50 ± 1.44%
Neutrophils (ovariectomy (OVX) rats [2]; [9]): 21.21 ± 6.19%
Platelet (ovariectomy (OVX) rats [2]; [9]): 1297.0 ± 91.27 10^3/mm^3
Red blood cell (ovariectomy (OVX) rats [2]; [9]): 8.23 ± 0.55 10^6/µL
White blood cell (ovariectomy (OVX) rats [2]; [9]): 4.84 ± 1.17 10^3/μl
C-terminal telopeptide / CTx (ovariectomy (OVX) rats [3]; [10]): quite reduced
osteocalcin (ovariectomy (OVX) rats [3]; [10]): considerably reduced
C-terminal telopeptide (ovariectomy (OVX) rats [3]; [11]): 4.360 ± 0.495^a ng/ml
osteocalcin (ovariectomy (OVX) rats [3]; [12]): 3.558 ± 0.154^ac ng/mL
calcium (ovariectomy (OVX) rats [4]; [13]): not significantly different from the Sham group
BMD (ovariectomy (OVX) rats [4]; [14]): 0.228 ± 0.012 g/cm²
Mean BW Nadir ([5]; lowest group mean body weight as % change from Day 1, — indicates no decrease in mean body weight was observed): −0.4% Day 2
MTV (n) Day 28 ([5]; 0.83 mg/kg po): 896 (9) mm^3
Deaths NTR ([5]; 0.83 mg/kg po): 1
Regressions CR ([5]; number of complete regressions, 0.83 mg/kg po): 0
Regressions PR ([5]; number of partial regressions, 0.83 mg/kg po): 0
% TGI [5]: 4%
Deaths TR ([5]; 0.83 mg/kg po): 0
Regressions TFS ([5]; tumor free survivors at end of study, 0.83 mg/kg po): 0
blood 17β-estradiol reduction by ovariectomy (ovariectomy (OVX) rats [6]): quite recovered
Estradiol (ovariectomy (OVX) rats [6]): 4.217 ± 0.247^a pg/ml
bone growth marker ALP (ovariectomy (OVX) rats [7]): recovered to a normal level
ALP (ovariectomy (OVX) rats [7]; [15]): 108.2 ± 20.7 IU/l
Albumin (ovariectomy (OVX) rats [7]; [15]): 2.7 ± 0.1 g/dL
BUN (ovariectomy (OVX) rats [7]; [15]): 9.2 ± 2.4 mg/dL
GOT (ovariectomy (OVX) rats [7]; [15]): 148.0 ± 30.4 IU/l
GPT (ovariectomy (OVX) rats [7]; [15]): 22.4 ± 4.0 IU/l
Glucose (ovariectomy (OVX) rats [7]; [15]): 112.4 ± 7.7 mg/dL
HDL (ovariectomy (OVX) rats [7]; [15]): 23.8 ± 5.2 mg/dL
LDL-C (ovariectomy (OVX) rats [7]; [15]): 8.0 ± 5.2 mg/dL
Phosphorus (ovariectomy (OVX) rats [7]; [15]): 4.1 ± 0.6 mg/dL
TC (ovariectomy (OVX) rats [7]; [15]): 73.0 ± 17.3 mg/dL
TG (ovariectomy (OVX) rats [7]; [15]): 20.6 ± 7.7 mg/dL
TP (ovariectomy (OVX) rats [7]; [15]): 4.7 ± 0.2
calcium (ovariectomy (OVX) rats [7]; [15]): 6.7 ± 0.4 mg/dL

Sigma Anti-bonding Molecule Calcium gluconate [SAC gluconate]
weights of the organs (ovariectomy (OVX) rats [1]; OVX rats): does not significantly affect the weights of the organs
Adrenal gland Left weight (ovariectomy (OVX) rats [1]; [8]): 0.0098 ± 0.0014 g
Adrenal gland Right weight (ovariectomy (OVX) rats [1]; [8]): 0.0098 ± 0.0014 g
Brain weight (ovariectomy (OVX) rats [1]; [8]): 0.6126 ± 0.02
Femur Left weight (ovariectomy (OVX) rats [1]; [8]): 0.3335 ± 0.02 g
Femur Right weight (ovariectomy (OVX) rats [1]; [8]): 0.3302 ± 0.02 g
Kidney: Left weight (ovariectomy (OVX) rats [1]; [8]): 0.2977 ± 0.01 g
Kidney: Right weight (ovariectomy (OVX) rats [1]; [8]): 0.2926 ± 0.02 g
Liver weight (ovariectomy (OVX) rats [1]; [8]): 2.5220 ± 0.15 g
Pituitary weight (ovariectomy (OVX) rats [1]; [8]): 4.3 ± 1 mg
Spleen weight (ovariectomy (OVX) rats [1]; [8]): 0.2056 ± 0.02 g
Uterus weight (ovariectomy (OVX) rats [1]; [8]): 0.0524 ± 0.02 g
Vagina weight (ovariectomy (OVX) rats [1]; [8]): 0.0665 ± 0.02 g
weights of the reproductive organs (uterus and vagina) (ovariectomy (OVX) rats [1]; reduced by ovariectomy): not restored
Eosinophils (ovariectomy (OVX) rats [2]; after ovariectomy): significantly increased
Basophils (ovariectomy (OVX) rats [2]; [9]): 0.03 ± 0.04 9%
Eosinophils (ovariectomy (OVX) rats [2]; [9]): 5.06 ± 2.88%
Hematocrit (ovariectomy (OVX) rats [2]; [9]): 44.94 ± 1.18%
Lymphocytes (ovariectomy (OVX) rats [2]; [9]): 73.36 ± 3.78%
Mean corpuscular hemoglobin (ovariectomy (OVX) rats [2]; [9]): 32.50 ± 1.75 pg
Mean corpuscular hemoglobin concentration (ovariectomy (OVX) rats [2]; [9]): 57.54 ± 1.76 g/dL
Mean corpuscular volume (ovariectomy (OVX) rats [2]; [9]): 54.44 ± 1.24 fL
Monocytes (ovariectomy (OVX) rats [2]; [9]): 2.60 ± 1.04%
Neutrophils (ovariectomy (OVX) rats [2]; [9]): 22.21 ± 5.19%
Platelet (ovariectomy (OVX) rats [2]; [9]): 1397.0 ± 81.27 10^3/mm^3
Red blood cell (ovariectomy (OVX) rats [2]; [9]): 8.33 ± 0.45 10^6/µL
White blood cell (ovariectomy (OVX) rats [2]; [9]): 4.94 ± 2.17 10^3/μl
C-terminal telopeptide / CTx (ovariectomy (OVX) rats [3]; [10]): also reduced; also recorded: recovered to normal levels
osteocalcin (ovariectomy (OVX) rats [3]; [10]): recovered to normal levels
C-terminal telopeptide (ovariectomy (OVX) rats [3]; [11]): 4.340 ± 0.395^a ng/ml
osteocalcin (ovariectomy (OVX) rats [3]; [12]): 3.458 ± 0.254^ac ng/mL
Phosphorus (ovariectomy (OVX) rats [4]; [13]): completely recovered
calcium (ovariectomy (OVX) rats [4]; [13]): completely recovered
BMD (ovariectomy (OVX) rats [4]; [14]): 0.238 ± 0.011 g/cm²
BMD (ovariectomy (OVX) rats [4]; reduced by ovariectomy): completely recovered; also recorded: improved BMD
femoral breaking force (ovariectomy (OVX) rats [4]; three-point bending test, reduced by ovariectomy): completely recovered
tumor growth (FIG. 4) ([5]; Colo205 xenograft mice): tumor growth was slowed down after 12 days
tumor growth and size of tumor (FIG. 5) ([5]; Colo205 xenograft mice): tumor growth became dull and a size of tumor was reduced after 2 or 3 weeks from the dose
MTV (n) Day 28 ([5]; 0.83 mg/kg po): 864 (10) mm^3
Deaths NTR ([5]; 0.83 mg/kg po): 0
% TGI [5]: 8%
Deaths TR ([5]; 0.83 mg/kg po): 0
extension of survival versus control (multiple myeloma (MM); 80 mg/kg orally 3 times per day, 83 versus 58 days): 43%
survival after tumor inoculation (multiple myeloma (MM); 80 mg/kg orally 3 times per day, control group survived 58 days): 83 days
tumor growth (FIG. 8) (multiple myeloma (MM); text result versus control group): stopped or at least became dull
blood 17β-estradiol reduction by ovariectomy (ovariectomy (OVX) rats [6]): quite recovered
Estradiol (ovariectomy (OVX) rats [6]): 4.417 ± 0.347^a pg/ml
bone growth marker ALP (ovariectomy (OVX) rats [7]): recovered to a normal level
ALP (ovariectomy (OVX) rats [7]; [15]): 108.5 ± 21.7 IU/l
Albumin (ovariectomy (OVX) rats [7]; [15]): 2.8 ± 0.1 g/dL
BUN (ovariectomy (OVX) rats [7]; [15]): 9.5 ± 2.3 mg/dL
GOT (ovariectomy (OVX) rats [7]; [15]): 158.0 ± 32.4 IU/l
GPT (ovariectomy (OVX) rats [7]; [15]): 20.4 ± 4.5 IU/l
Glucose (ovariectomy (OVX) rats [7]; [15]): 110.4 ± 8.7 mg/dL
HDL (ovariectomy (OVX) rats [7]; [15]): 22.8 ± 6.2 mg/dL
LDL-C (ovariectomy (OVX) rats [7]; [15]): 8.1 ± 4.2 mg/dL
Phosphorus (ovariectomy (OVX) rats [7]; [15]): 4.2 ± 0.3 mg/dL
calcium (ovariectomy (OVX) rats [7]; [15]): 6.8 ± 0.3 mg/dL
